Marks after values point to notes of the source that are not given here. Starred links: 1 amine or outer side, 2 acyl side, 3 side chain; linkers in the order of their positions; H or OH if unused. Non-standard residues stand in square brackets, D forms with d. Residues, ends and D or L forms follow the SMILES beside them. No end group written: not given here. X3 = N[C@@H](Cc1ccccc1)CN(CC(=O)[*:2])[*:1]
Assays:
[1] = target: T1, NOP receptor (NOP-RLuc/β-arrestin 2-RGFP) (Homo sapiens, UniProt P41146); assay: NOP/β-arrestin 2 interaction, BRET assay in whole cells; format: cell-based; details: for NOP/β-arrestin 2 α ± sem (intrinsic activity): Emax of ligand / Emax of N/OFQ(1–13)-NH2, mean ± sem of five experiments in duplicate; for NOP/β-arrestin 2 pEC50 (CL95%): BRET, whole HEK293 cells co-expressing NOP-RLuc/β-arrestin 2-RGFP, 100,000 cells/well, room temperature, mean of five independent experiments in duplicate, 95% confidence limits; for NOP/β-arrestin 2 CR (concentration ratio): ratio between EC50 of the ligand and that of the standard agonist N/OFQ(1–13)-NH2
T1 construct: expressed in transfected cells; host or cells: HEK293 (whole cells)
Description: (§1) For this study, human embryonic kidney (HEK293) cells, permanently co-expressing the different pairs of fusion proteins NOP-RLuc/Gβ1-RGFP and NOP-RLuc/β-arrestin 2-RGFP, and SH-SY5Y cells stably, co-expressing the different pairs of fusion proteins mu-RLuc/Gβ1-RGFP and mu-RLuc/β-arrestin 2-RGFP or delta-RLuc/Gβ1-RGFP and delta-RLuc/β-arrestin 2-RGFP, were used. Cells were prepared and cultured, as described previously.[19],[23] Cells were grown in Dulbecco’s modified Eagle’s medium (DMEM)/HAMS F12 (1:1) supplemented with 10% fetal bovine serum, penicillin G (100 units/mL), streptomycin (100 μg mL^–1), L-glutamine (2 mM), fungizone (1 μg mL^–1), geneticin (G418; 200 μg mL^–1), and hygromycin B (100 μg mL^–1) in a humidified atmosphere of 5% CO2 at 37 °C. For G protein experiments, enriched plasma membrane aliquots from transfected cells were prepared by differential centrifugation; cells were detached with phosphate buffered saline (PBS)/EDTA solution (1 mM, pH 7.4 NaOH), then, after 5 min 500g centrifugation, Dounce-homogenized (30 strokes) in cold homogenization buffer (tris(hydroxymethyl)aminomethane 5 mM, EGTA 1 mM, DTT 1 mM, pH 7.4 HCl) in the presence of sucrose (0.32 M). Three following centrifugations were performed at 10 min 1000g (4 °C), and the supernatants were kept. Two 20 min 24,000g (4 °C) subsequent centrifugations (the second in the absence of sucrose) were performed for separating enriched membranes that, after discarding the supernatant, were kept in ultrapure water at −80 °C.[67] The protein concentration in membrane preparations was determined using the QPRO-BCA kit (Cyanagen Srl, Bologna, IT) and the Ensight (PerkinElmer, Waltham, USA) in the spectrophotometer mode.
(§2) Luminescence in membranes was recorded in 96-well untreated white opaque microplates, while in whole cells, it was recorded in 96-well sterile poly-D-lysine-coated white opaque microplates (PerkinElmer, Waltham, MA, USA) using the luminometer Victor 2030 (PerkinElmer, Waltham, MA, USA). For the determination of receptor/G protein interactions, membranes (3 μg of protein) prepared from cells co-expressing NOP (or mu or delta)/RLuc and Gβ1/RGFP were added to wells in DPBS. For the determination of receptor/β-arrestin 2 interactions, cells co-expressing NOP (or mu or delta)/RLuc and β-arrestin 2/RGFP were plated 24 h before the experiment in poly-D-lysine-treated plates (100,000 cells/well). The cells were prepared for the experiment substituting the medium with PBS with MgCl2 (0.5 mM) and CaCl2 (0.9 mM). Coelenterazine at a final concentration of 5 μM was injected 15 min prior to reading the cell plate. Different concentrations of ligands in 20 μL of PBS–BSA 0.01% were added and incubated 5 min before reading luminescence. […] The BRET ratio was measured 15 min after agonist injection. All experiments were performed at room temperature.
(§3) The pharmacological terminology adopted in this paper is consistent with IUPHAR recommendations.[68] All data are expressed as the mean ± sem of five independent experiments made in duplicate. […] Ligand efficacy was expressed as intrinsic activity (α), calculated as the ratio between the Emax of the ligand and that of the standard agonist. Count per second (CPS) measured for the RGFP and RLuc light emitted using 510(10) and 460(25) filters (PerkinElmer, Waltham, MA), respectively, was used to calculate the BRET ratio. All data are expressed as the stimulated BRET ratio, that is, the ratio between CPS from RGFP and RLuc in the presence of ligands minus the BRET ratio in vehicle-treated wells. […] Concentration–response curves to agonists were fitted to the classical four-parameter logistic nonlinear regression model [drawing 1]
(§4) Curves fitting were performed using PRISM 6.0 (GraphPad Software In., San Diego, USA).

[2] = system: NOP receptor; assay: NOP bias factor, G protein vs β-arrestin 2 (Black–Leff operational model); details: for BIAS FACTOR: supplementary CSV (molecular formula strings), repeats Tables 1–7 without confidence limits; for bias factor (CL95%), NOP: ΔΔlog(τ/KA) G protein minus β-arrestin 2, N/OFQ(1–13)-NH2 as standard unbiased ligand, positive = toward G protein, mean of at least five experiments
Text: The concentration–response curves of each compound were fitted to the Black–Leff operational model, described by Nagi and Pineyro[70] [drawing 3] where [A] is the agonist concentration, the maximal response of the system is given by Em, n is a fitting parameter for the slope, the affinity of the agonist is represented by the equilibrium dissociation constant of the agonist–receptor complex (KA), and the efficacy of the agonist is defined by τ. τ and KA are descriptive parameters of intrinsic efficacy and binding affinity and may be directly obtained by fitting the experimental data to the operational equation and can be expressed as “transduction coefficients” log(τ/KA). The relative efficiency of agonists producing activation of any pathways can thus be quantified with a “normalized” transduction coefficient, namely Δlog(τ/KA). Finally, the bias factors were calculated as difference between Δlog(τ/KA) values for a given agonist between the pathways (G protein and β-arrestin 2) [drawing 4]
Bias factors are expressed as the mean of at least five independent experiments, and CL95% are indicated. Biased factor is considered to be statistically different from 0 when 0 is not included in CL95%. α values have been statistically analyzed with one-way analysis of variance (ANOVA) followed by the Dunnett post hoc test for multiple comparisons; P values less than 0.05 were considered to be statistically significant.

[3] = target: T2, NOP receptor (NOP-RLuc/Gβ1-RGFP) (Homo sapiens, UniProt P41146); assay: NOP/G protein interaction, BRET assay in membranes; format: biochemical; details: for NOP/G protein pEC50 (CL95%): BRET, membranes (3 μg protein) from HEK293 cells co-expressing NOP-RLuc/Gβ1-RGFP, room temperature, mean of five independent experiments in duplicate, 95% confidence limits; for NOP/G protein α ± sem (intrinsic activity): Emax of ligand / Emax of N/OFQ(1–13)-NH2, mean ± sem of five experiments in duplicate; for NOP/G protein CR (concentration ratio): ratio between EC50 of the ligand and that of the standard agonist N/OFQ(1–13)-NH2
T2 construct: expressed in transfected cells; host or cells: HEK293 (enriched plasma membranes)
Description: as §1, §2, §3, §4

T2 sequence (P41146 whole entry): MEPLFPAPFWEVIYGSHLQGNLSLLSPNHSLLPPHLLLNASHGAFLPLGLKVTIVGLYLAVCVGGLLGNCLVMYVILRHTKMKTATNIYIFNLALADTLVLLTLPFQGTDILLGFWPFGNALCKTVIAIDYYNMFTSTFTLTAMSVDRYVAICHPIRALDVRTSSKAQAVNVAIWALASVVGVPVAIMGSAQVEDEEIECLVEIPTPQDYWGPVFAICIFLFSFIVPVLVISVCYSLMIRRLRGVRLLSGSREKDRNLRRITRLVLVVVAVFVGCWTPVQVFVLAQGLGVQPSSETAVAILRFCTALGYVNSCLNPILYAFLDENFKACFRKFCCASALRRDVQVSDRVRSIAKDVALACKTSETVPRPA
T1 sequence (P41146 whole entry): as above

Compound | NOP/β-arrestin 2 α ± sem (intrinsic activity) [1] | BIAS FACTOR [2] | bias factor (CL95%), NOP [2] | less potent than N/OFQ(1–13)-NH2 / reduction of potency, NOP/G protein [3] | NOP/G protein pEC50 (CL95%) [3] | NOP/G protein α ± sem (intrinsic activity) [3] | NOP/G protein CR (concentration ratio) [3] | NOP/β-arrestin 2 pEC50 (CL95%) [1] | NOP/β-arrestin 2 CR (concentration ratio) [1]
C[C@H](NC(=O)CNC(=O)[C@@H](NC(=O)[C@H](Cc1ccccc1)NC(=O)CNC(=O)CNC(=O)[C@@H](N)CC1CCCCC1)[C@@H](C)O)C(=O)N[C@@H](CCCNC(=N)N)C(=O)N[C@@H](CCCCN)C(=O)N[C@@H](CO)C(=O)N[C@@H](C)C(=O)N[C@@H](CCCNC(=N)N)C(=O)N[C@@H](CCCCN)C(N)=O [Compound 22, [Cha^1]N/OFQ(1–13)-NH2] | 1.03 ± 0.05 | 0.20 | 0.20 (−0.36–0.76) |  |  |  |  |  | 
C[C@H](NC(=O)CNC(=O)[C@@H](NC(=O)[C@H](Cc1ccccc1)NC(=O)CNC(=O)[C@@H](C)NC(=O)[C@@H](N)Cc1ccccc1)[C@@H](C)O)C(=O)N[C@@H](CCCNC(=N)N)C(=O)N[C@@H](CCCCN)C(=O)N[C@@H](CO)C(=O)N[C@@H](C)C(=O)N[C@@H](CCCNC(=N)N)C(=O)N[C@@H](CCCCN)C(N)=O [Compound 26, [D-Ala^2]N/OFQ(1–13)-NH2] (H-F[dA]GFTGARKSARK-NH2) | 0.95 ± 0.05 | 0.20 | 0.20 (−0.26–0.66) | approximately 10 fold | 7.57 (7.28–7.86) | 1.03 ± 0.03 | 13 | 7.16 (6.94–7.34) | 13
C[C@H](NC(=O)CNC(=O)[C@@H](NC(=O)[C@H](Cc1ccccc1)NC(=O)CNC(=O)CNC[C@@H](N)Cc1ccccc1)[C@@H](C)O)C(=O)N[C@@H](CCCNC(=N)N)C(=O)N[C@@H](CCCCN)C(=O)N[C@@H](CO)C(=O)N[C@@H](C)C(=O)N[C@@H](CCCNC(=N)N)C(=O)N[C@@H](CCCCN)C(N)=O [Compound 30, [Phe^1ψ(CH2–NH)Gly^2]N/OFQ(1–13)-NH2] (H-[X3]GFTGARKSARK-NH2) |  |  |  |  |  |  |  | Inactive | 
FAGFTGARKSARK-NH2 [Compound 2, [Ala^2]N/OFQ(1–13)-NH2] |  |  |  |  | 6.36 (5.89–6.83) | 0.54 ± 0.07 ^a | 275 | inactive | 
FGGFTGARASARK-NH2 [Compound 8, [Ala^9]N/OFQ(1–13)-NH2] | 1.03 ± 0.07 | -0.15 | –0.15 (−0.79–0.49) |  | 8.14 (6.88–9.41) | 0.97 ± 0.04 | 5 | 7.77 (7.43–8.11) | 3
FGGFTGARKAARK-NH2 [Compound 9, [Ala^10]N/OFQ(1–13)-NH2] | 1.00 ± 0.04 | -0.08 | –0.08 (−0.67–0.50) |  | 9.25 (7.82–10.68) | 0.94 ± 0.04 | 0.35 | 8.43 (7.91–8.95) | 0.68
FGGWTGARKSARK-NH2 [Compound 24, [Trp^4]N/OFQ(1–13)-NH2] | 0.77 ± 0.03 ^a | 0.11 | 0.11 (−0.43–0.65) |  |  |  |  |  | 
[Ala^1]N/OFQ(1–13)-NH2 (AGGFTGARKSARK-NH2) [Compound 1] |  |  |  |  | Crc incomplete |  | ∼700 | inactive | 
[Ala^4]N/OFQ(1–13)-NH2 (FGGATGARKSARK-NH2) [Compound 4] |  |  |  |  | Crc incomplete |  | ∼1000 | inactive | 
[Ala^8]N/OFQ(1–13)-NH2 (FGGFTGAAKSARK-NH2) [Compound 7] |  |  |  |  | Crc incomplete |  | ∼1000 | inactive | 
[Cys(X)^14]N/OFQ(1-14)-NH2 [Compound 49] (chain 1 FGGFTGARKSARKC; chain 2 KKKKKK) [(Lys)6 moiety] |  |  |  |  | 10.06 (9.79-10.34) |  |  | 8.22 (8.03-8.40) | 
[D-Phe^3]N/OFQ(1–13)-NH2 (FG[dF]FTGARKSARK-NH2; N-terminus assumed; SMILES C[C@H](NC(=O)CNC(=O)[C@@H](NC(=O)[C@H](Cc1ccccc1)NC(=O)[C@@H](Cc1ccccc1)NC(=O)CNC(=O)[C@@H](N)Cc1ccccc1)[C@@H](C)O)C(=O)N[C@@H](CCCNC(=N)N)C(=O)N[C@@H](CCCCN)C(=O)N[C@@H](CO)C(=O)N[C@@H](C)C(=O)N[C@@H](CCCNC(=N)N)C(=O)N[C@@H](CCCCN)C(N)=O) [Compound 25] |  |  |  |  | inactive |  |  | inactive | 
[DThr^5]N/OFQ(1–13)-NH2 [Compound 14] |  |  |  |  | crc incomplete |  |  | inactive | 

From article PMC8011926 (Journal of Medicinal Chemistry, 2020)
